Measured values published in US20110250135A1, “Piperazine Derivatives for Binding and Imaging Amyloid Plaques and Their Use” (Bayer Schering Pharma Aktiengesellschaft, priority 2008, published 2011).

How the values were obtained:
[1] = Biodistribution: organ distribution of F-18 signal in mice; format: in vivo, male NMRI mice; settings: for Organ distribution of F-18 signal, intestine: intestine (with content); for Organ distribution of F-18 signal, stomach: stomach (without content)
Procedure: Biodistribution and excretion studies were performed in male NMRI mice (body weight app. 30g; 3 animals per time point). The animals were kept under normal laboratory conditions at a temperature of 22±2° C. and a dark/light rhythm of 12 hours. Food and water were provided ad libitium. During an acclimation period of at least 3 days before the beginning of the study animals were clinically examined to ascertain the absence of abnormal clinical signs. At 2, 5, 30, 60, 240 min post intravenous injection via the tail vein of ca. 150 kBq in 100 μl of the test compound, urine and feces were quantitatively collected. At the same time points, animals were sacrificed by decapitation and under isoflurane anaesthesia and the following organs and tissues were removed for the determination of radioactivity using a gamma-counter: spleen, liver, kidney, lung, femur, heart, brain, fat, thyroid, muscle, skin, blood, tail, stomach (without content), testicle, intestine (with content), pancreas, adrenals, and the remaining body. For analysis the decay corrected percentage of the injected dose per tissue weight (% ID/g±standard deviation) was calculated.

Aβ plaques = target: T1, Aβ plaques (Homo sapiens, UniProt P05067); assay: Autoradiographical analysis of binding to cryosections from cortex of AD patients and controls; settings: F-18 labeled compound; Alzheimer's disease patients (AD) vs controls without Aβ plaques
T1 construct: controls without Aβ plaques; from tissue; host or cells: frontal lobe / cortex sections (frozen and paraffin) from AD patients, FTD patients and age-matched controls
Source text: Fresh frozen as well as paraffin embedded sections of the frontal lobe from Alzheimer's dementia patients, frontotemporal dementia patients and age matched controls were used for the study. Frozen sections, sliced at 18 μm thickness on a cryostate (Leica, Germany) and paraffin sections, sliced on a sliding microtom (Leica) at a thickness of 6 μm, were mounted onto glass slides (Superfrost Plus, Fa.Menzel, Braunschweig Germany). Frozen sections were allowed to adhere to the slides for several nights at −20° C. The paraffin sections were deparaffinized using routine histological methods. For binding studies sections were incubated with the F-18 labeled test compound at 10 Bq/μl diluted in 25 mM Hepes buffer, pH 7.4, 0.1% (BSA) (200-300 μl/slide) for 1.5 hour at room temperature in a humidified chamber. For blocking experiments a 1000-fold access of the unlabeled test substance was added to the incubation mixture. After hybridization, sections were washed four times with Hepes buffer, 0.1% BSA (or alternatively two times with 40% ethanol) and finally dipped two times into dest. water for 10 sec. The air-dried sections were exposed to imaging plates and signals were detected by a phosphoimager device (Fuji BAS5000).

T1 sequence (P05067 672-713 limits assumed): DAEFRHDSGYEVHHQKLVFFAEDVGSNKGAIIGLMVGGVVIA

## O=C(NCC(=O)N1CCN(c2ccc(OCc3ccccc3)cc2)CC1)c1ccc([18F])nc1 [Example 10e, N-{2-[4-(4-Benzyloxy-phenyl)-piperazin-1-yl]-2-oxoethyl}-6-[F-18]-fluoro-nicotinamide]
[1]; 2 min post i.v. injection
  Organ distribution of F-18 signal, adrenals: 7.86 % ID/g
  Organ distribution of F-18 signal, blood: 2.01 % ID/g
  Organ distribution of F-18 signal, brain: 4.99 % ID/g
  Organ distribution of F-18 signal, fat: 1.79 % ID/g
  Organ distribution of F-18 signal, femur: 1.44 % ID/g
  Organ distribution of F-18 signal, heart: 5.18 % ID/g
  Organ distribution of F-18 signal, intestine: 2.13 % ID/g
  Organ distribution of F-18 signal, kidney: 8.58 % ID/g
  Organ distribution of F-18 signal, liver: 7.44 % ID/g
  Organ distribution of F-18 signal, lung: 4.31 % ID/g
  Organ distribution of F-18 signal, muscle: 2.40 % ID/g
  Organ distribution of F-18 signal, pancreas: 4.59 % ID/g
  Organ distribution of F-18 signal, skin: 1.37 % ID/g
  Organ distribution of F-18 signal, spleen: 1.96 % ID/g
  Organ distribution of F-18 signal, stomach: 3.69 % ID/g
  Organ distribution of F-18 signal, tail: 8.65 % ID/g
  Organ distribution of F-18 signal, testicle: 1.53 % ID/g
  Organ distribution of F-18 signal, thyroid: 2.51 % ID/g
[1]; 5 min post i.v. injection
  Organ distribution of F-18 signal, adrenals: 6.20 % ID/g
  Organ distribution of F-18 signal, blood: 1.98 % ID/g
  Organ distribution of F-18 signal, brain: 4.33 % ID/g
  Organ distribution of F-18 signal, fat: 2.66 % ID/g
  Organ distribution of F-18 signal, femur: 1.53 % ID/g
  Organ distribution of F-18 signal, heart: 4.49 % ID/g
  Organ distribution of F-18 signal, intestine: 2.40 % ID/g
  Organ distribution of F-18 signal, kidney: 7.92 % ID/g
  Organ distribution of F-18 signal, liver: 12.02 % ID/g
  Organ distribution of F-18 signal, lung: 3.86 % ID/g
  Organ distribution of F-18 signal, muscle: 2.07 % ID/g
  Organ distribution of F-18 signal, pancreas: 4.54 % ID/g
  Organ distribution of F-18 signal, skin: 1.76 % ID/g
  Organ distribution of F-18 signal, spleen: 1.99 % ID/g
  Organ distribution of F-18 signal, stomach: 2.84 % ID/g
  Organ distribution of F-18 signal, tail: 6.65 % ID/g
  Organ distribution of F-18 signal, testicle: 1.81 % ID/g
  Organ distribution of F-18 signal, thyroid: 2.62 % ID/g
[1]; 30 min post i.v. injection
  Organ distribution of F-18 signal, adrenals: 2.36 % ID/g
  Organ distribution of F-18 signal, blood: 1.38 % ID/g
  Organ distribution of F-18 signal, brain: 1.44 % ID/g
  Organ distribution of F-18 signal, fat: 1.95 % ID/g
  Organ distribution of F-18 signal, femur: 1.15 % ID/g
  Organ distribution of F-18 signal, heart: 1.85 % ID/g
  Organ distribution of F-18 signal, intestine: 8.20 % ID/g
  Organ distribution of F-18 signal, kidney: 6.29 % ID/g
  Organ distribution of F-18 signal, liver: 9.60 % ID/g
  Organ distribution of F-18 signal, lung: 1.93 % ID/g
  Organ distribution of F-18 signal, muscle: 1.16 % ID/g
  Organ distribution of F-18 signal, pancreas: 2.27 % ID/g
  Organ distribution of F-18 signal, skin: 1.39 % ID/g
  Organ distribution of F-18 signal, spleen: 1.08 % ID/g
  Organ distribution of F-18 signal, stomach: 2.40 % ID/g
  Organ distribution of F-18 signal, tail: 1.86 % ID/g
  Organ distribution of F-18 signal, testicle: 1.28 % ID/g
  Organ distribution of F-18 signal, thyroid: 1.26 % ID/g
[1]; 60 min post i.v. injection
  Organ distribution of F-18 signal, adrenals: 0.67 % ID/g
  Organ distribution of F-18 signal, blood: 0.55 % ID/g
  Organ distribution of F-18 signal, brain: 0.44 % ID/g
  Organ distribution of F-18 signal, fat: 0.67 % ID/g
  Organ distribution of F-18 signal, femur: 1.43 % ID/g
  Organ distribution of F-18 signal, heart: 0.69 % ID/g
  Organ distribution of F-18 signal, intestine: 10.63 % ID/g
  Organ distribution of F-18 signal, kidney: 2.61 % ID/g
  Organ distribution of F-18 signal, liver: 5.27 % ID/g
  Organ distribution of F-18 signal, lung: 0.89 % ID/g
  Organ distribution of F-18 signal, muscle: 0.34 % ID/g
  Organ distribution of F-18 signal, pancreas: 0.92 % ID/g
  Organ distribution of F-18 signal, skin: 0.51 % ID/g
  Organ distribution of F-18 signal, spleen: 0.35 % ID/g
  Organ distribution of F-18 signal, stomach: 1.09 % ID/g
  Organ distribution of F-18 signal, tail: 1.00 % ID/g
  Organ distribution of F-18 signal, testicle: 0.52 % ID/g
  Organ distribution of F-18 signal, thyroid: 0.56 % ID/g
[1]; 240 min post i.v. injection
  Organ distribution of F-18 signal, adrenals: 0.43 % ID/g
  Organ distribution of F-18 signal, blood: 0.09 % ID/g
  Organ distribution of F-18 signal, brain: 0.04 % ID/g
  Organ distribution of F-18 signal, fat: 0.15 % ID/g
  Organ distribution of F-18 signal, femur: 1.75 % ID/g
  Organ distribution of F-18 signal, heart: 0.11 % ID/g
  Organ distribution of F-18 signal, intestine: 6.90 % ID/g
  Organ distribution of F-18 signal, kidney: 0.50 % ID/g
  Organ distribution of F-18 signal, liver: 2.29 % ID/g
  Organ distribution of F-18 signal, lung: 0.10 % ID/g
  Organ distribution of F-18 signal, muscle: 0.06 % ID/g
  Organ distribution of F-18 signal, pancreas: 1.07 % ID/g
  Organ distribution of F-18 signal, skin: 0.08 % ID/g
  Organ distribution of F-18 signal, spleen: 0.06 % ID/g
  Organ distribution of F-18 signal, stomach: 0.50 % ID/g
  Organ distribution of F-18 signal, tail: 0.69 % ID/g
  Organ distribution of F-18 signal, testicle: 0.06 % ID/g
  Organ distribution of F-18 signal, thyroid: 0.35 % ID/g
Aβ plaques
  autoradiographical analysis of binding to cryosections from cortex: Specific binding in plaque-rich regions of AD samples
